Assay results taken from patent publication US20240279283A1, “CYCLIC PEPTIDE ANTIBIOTICS” (priority 2021, published 2024).
Bridge positions count the residues as written; N and C are the ends. Square brackets hold non-standard residues; d marks the D form. Peptide text beside a SMILES is read from it. 1Nal = N[C@@H](Cc1cccc2ccccc12)C(=O)O; His(π-Me) = Cn1cncc1C[C@H](N)C(=O)O; NMeY = CN[C@@H](Cc1ccc(O)cc1)C(=O)O; aThr = C[C@H](O)[C@H](N)C(=O)O; Nle = CCCC[C@H](N)C(=O)O; Abu = CC[C@H](N)C(=O)O; Aib = CC(C)(N)C(=O)O

Legend:
Format in all cases: cell-based
Conditions in all cases: LB broth, 5×10^5 CFU/ml, 37° C., 18 hours, scored by eye
[1] = test system: E. coli 25922; assay: Minimum Inhibitory Concentration (MIC) determination, E. coli 25922; design: unit not given here
Outline: (§1)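 Peptides, diluted two-fold in LB broth from 10 mM DMSO stocks, were inoculated with 5×10^5 CFU/ml of each strain. Incubation was 18 h at 37 °C without shaking. MIC is the lowest concentration preventing visible growth, scored by eye.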

[2] = test system: E. cloacae ATCC222; assay: Minimum Inhibitory Concentration (MIC) determination, E. cloacae ATCC222; design: unit not given here
Description: (§2) MICs were determined by performing two-fold serial dilutions of peptides in LB broth to a final volume of 0.1 ml in round-bottom 96-well assay plates (Corning Life Sciences No 3788). Peptides were initially resuspended in 100% DMSO to 10 mM and subsequently diluted in LB medium to the appropriate concentration. Each well was inoculated with 5×10^5 CFU/ml of the screening stain and incubated at 37° C. without agitation for 18 hours. Plates were scored by eye, and the lowest compound concentration preventing visible growth was determined to be the MIC.

[3] = test system: K. pneumoniae ATCC43816; assay: Minimum Inhibitory Concentration (MIC) determination, K. pneumoniae ATCC43816; design: unit not given here
Description: as §2

[4] = test system: E. coli BW25113; assay: Minimum Inhibitory Concentration (MIC) determination, E. coli BW25113; design: unit not given here
Outline: as §1

[5] = test system: E. coli 25922 IMP; assay: Minimum Inhibitory Concentration (MIC) determination, E. coli 25922 IMP
Outline: as §1

Row | Structure (SMILES) | MIC E. coli 25922 WUXI::MIC [1] | MIC E. cloacae ATCC222 WUXI::MIC [2] | MIC K. pneumoniae ATCC43816 Wuxi::MIC [3] | MIC E. coli BW25113 WUXI::MIC [4] | MIC E. coli 25922 IMP WUXI::MIC [5]
1 | CC[C@H](C)[C@@H]1NC(=O)[C@H]([C@@H](C)O)NC(=O)[C@H](Cc2cncn2C)NC(=O)[C@H](Cc2ccccc2)NC(=O)CSC[C@@H](C(=O)NCC(N)=O)NC(=O)[C@H](Cc2ccc(O)cc2)NC(=O)[C@H](Cc2c[nH]c3ccccc23)NC(=O)[C@H](Cc2ccc(O)cc2)NC(=O)[C@H](Cc2cncn2C)NC(=O)[C@H](Cc2ccccc2)NC(=O)C(C)(C)NC(=O)[C@H](CCCNC(=N)N)NC(=O)[C@H](CCCCN)NC(=O)[C@H](CCCNC(=N)N)NC1=O [Compound 51] ({CH2CO}-F[His(π-Me)]TIRKR[Aib]F[His(π-Me)]YWYCG-NH2; thioether N-14) | 8 | >32 | >32 | 8 | 0.5
2 | CC[C@H](C)[C@@H]1NC(=O)[C@H]([C@@H](C)O)NC(=O)CNC(=O)[C@H](Cc2ccccc2)NC(=O)CSC[C@@H](C(=O)NCC(N)=O)NC(=O)[C@H](Cc2ccccc2)NC(=O)[C@H](Cc2c[nH]c3ccccc23)NC(=O)[C@H](Cc2ccc(O)cc2)NC(=O)[C@H](CCCNC(=N)N)NC(=O)[C@H](Cc2ccccc2)NC(=O)[C@H](CCCNC(=N)N)NC(=O)[C@H](CCCNC(=N)N)NC(=O)[C@H](CCCCN)NC(=O)[C@H](Cc2cnc[nH]2)NC1=O (racemic) [Compound 50] | 2 | >64 | 32 | 2 | 1
3 | CCCC[C@@H]1NC(=O)CSC[C@@H](C(=O)NCC(N)=O)NC(=O)[C@H](Cc2cncn2C)NC(=O)[C@H](CCCNC(=N)N)NC(=O)[C@H](Cc2c[nH]cn2)NC(=O)[C@H](Cc2ccc(O)cc2)N(C)C(=O)[C@H](CCCNC(=N)N)NC(=O)[C@H](CO)NC(=O)CNC(=O)[C@H](Cc2c[nH]cn2)NC(=O)[C@H](Cc2cccc3ccccc23)NC(=O)[C@H](CC)NC1=O [Compound 20] ({CH2CO}-[Nle][Abu][1Nal]HGSR[NMeY]HR[His(π-Me)]CG-NH2; thioether N-12) | 13 | 1.6 | 25 | 25 | 0.0078
4 | CC[C@@H]1NC(=O)[C@H](Cc2ccccc2)NC(=O)CSC[C@@H](C(=O)NCC(N)=O)NC(=O)[C@H](C)NC(=O)[C@H](CCCNC(=N)N)NC(=O)[C@H](Cc2c[nH]cn2)NC(=O)[C@H](Cc2ccc(O)cc2)N(C)C(=O)[C@H](CCCNC(=N)N)NC(=O)[C@H](CO)NC(=O)CNC(=O)[C@H](Cc2c[nH]cn2)NC(=O)[C@H](Cc2cccc3ccccc23)NC1=O [Compound 39, (3R,6S,9S,12S,15S,18S,21S,27S,30S, 33S,36S)-N-(2-amino-2-oxo-ethyl)-36-benzyl-33-ethyl-9,18-bis(3-guanidinopropyl)-21-(hydroxymethyl)-15-[(4-hydroxyphenyl)methyl]-12,27-bis(1H-imidazol-4-ylmethyl)-6,16-dimethyl-30-(1-naphthylmethyl)-5,8,11,14,17,20,23,26,29,32,35,38-dodecaoxo-1-thia-4,7,10,13,16,19,22,25,28,31,34,37-dodecazacyclononatriacontane-3-carboxamide] ({CH2CO}-F[Abu][1Nal]HGSR[NMeY]HRACG-NH2; thioether N-12) | 100 | 100 | 100 | 100 | 6.3
5 | CC[C@@H](C)[C@H]1NC(=O)[C@@H](Cc2ccccc2)NC(=O)CSC[C@H](C(=O)NCC(N)=O)NC(=O)[C@@H](Cc2cncn2C)NC(=O)[C@@H](CCCNC(=N)N)NC(=O)[C@@H](Cc2cnc[nH]2)NC(=O)[C@@H](Cc2ccccc2)N(C)C(=O)[C@@H](CCCNC(=N)N)NC(=O)[C@@H](CO)NC(=O)CNC(=O)[C@@H](Cc2cnc[nH]2)NC(=O)[C@@H](Cc2cccc3ccccc23)NC1=O (racemic) [Compound 17] | 13 | 3.1 | 37.5 | 50 | 0.002
6 | CC[C@@H]1NC(=O)[C@H](Cc2ccccc2)NC(=O)CSC[C@@H](C(=O)NCC(N)=O)NC(=O)[C@H](Cc2cncn2C)NC(=O)[C@H](CCCNC(=N)N)NC(=O)[C@H](C)NC(=O)[C@H](Cc2ccc(O)cc2)N(C)C(=O)[C@H](CCCNC(=N)N)NC(=O)[C@H](CO)NC(=O)CNC(=O)[C@H](Cc2c[nH]cn2)NC(=O)[C@H](Cc2cccc3ccccc23)NC1=O [Compound 37] ({CH2CO}-F[Abu][1Nal]HGSR[NMeY]AR[His(π-Me)]CG-NH2; thioether N-12) | 100 | 100 | 100 | 100 | 25
7 | CC[C@@H]1NC(=O)[C@H](Cc2ccccc2)NC(=O)CSC[C@@H](C(=O)NCC(N)=O)NC(=O)[C@H](Cc2cncn2C)NC(=O)[C@H](CCCNC(=N)N)NC(=O)[C@H](Cc2c[nH]cn2)NC(=O)[C@H](Cc2ccc(O)cc2)N(C)C(=O)[C@H](CCCNC(=N)N)NC(=O)[C@H]([C@H](C)O)NC(=O)CNC(=O)[C@H](Cc2c[nH]cn2)NC(=O)[C@H](Cc2cccc3ccccc23)NC1=O [Compound 31] ({CH2CO}-F[Abu][1Nal]HG[aThr]R[NMeY]HR[His(π-Me)]CG-NH2; thioether N-12) | 25 | 6.3 | 50 | 50 | 0.016
8 | CC[C@@H]1NC(=O)[C@H](Cc2ccccc2)NC(=O)CSC[C@@H](C(=O)NCC(N)=O)NC(=O)[C@H](Cc2cncn2C)NC(=O)[C@H](CCCNC(=N)N)NC(=O)[C@H](Cc2c[nH]cn2)NC(=O)[C@H](Cc2ccc(O)cc2)N(C)C(=O)[C@H](CCCNC(=N)N)NC(=O)[C@H](CO)NC(=O)[C@@H](C)NC(=O)[C@H](Cc2c[nH]cn2)NC(=O)[C@H](Cc2cccc3ccccc23)NC1=O [Compound 26] ({CH2CO}-F[Abu][1Nal]H[dA]SR[NMeY]HR[His(π-Me)]CG-NH2; thioether N-12) | 3.1 | 0.78 | 25 | 6.3 | 0.0039
9 | CC(C)[C@@H]1NC(=O)[C@H](Cc2ccccc2)NC(=O)CSC[C@@H](C(=O)NCC(N)=O)NC(=O)[C@H](Cc2cncn2C)NC(=O)[C@H](CCCNC(=N)N)NC(=O)[C@H](Cc2cnc[nH]2)NC(=O)[C@H](Cc2ccc(O)cc2)N(C)C(=O)[C@H](CCCNC(=N)N)NC(=O)[C@H](CO)NC(=O)CNC(=O)[C@H](Cc2cnc[nH]2)NC(=O)[C@H](Cc2c[nH]c3ccccc23)NC1=O (racemic) [Compound 14] | 25 | 1.19 | 25 | 37.5 | 0.0119
